Assay in all cases: NCI tumour cell line growth inhibition, 48 h
The subject of assay [1] is K-562 leukemia.
Assay [2] concerns M14 melanoma.
For assay [3], the system named is SNB-75 CNS.
Assay [4] concerns NCI-H226 lung.
Assay [5] concerns SNB-19 CNS.
Assay [6] relates to OVCAR-8 ovarian.
Assay [7] concerns UO-31 renal.
For assay [8], the system named is T-47D breast.
The test system of assay [9] is SK-MEL-5 melanoma.
Assay [10] has as its system SK-MEL-2 melanoma.

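Growth conditions: 96-well plates. Treatment: test compound, 48 hours, 5 concentrations. Analysis: linear interpolation between bracketing concentrations; unreached endpoints set to highest concentration. The concentration for 50% growth inhibition is given as GI50. At the TGI there is no net growth.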

As to `FC(F)(F)c1ccc(-c2cnc(-c3ncon3)nc2NC2CCCCCC2)cc1`, the GI50 in assay [1] is 34.8 µM; in assay [2], 56.3 µM; in assay [3] it was 50.5 µM; in assay [4], 43.1 µM; in [5], 29.2 µM; in [6] it was 32.2 µM. Moreover, the GI50 in [7] was 26.4 µM; in assay [8], 25.6 µM; in assay [9], 40.7 µM. In addition, the TGI in assay [1], in assay [2], in assay [3], in assay [4], in assay [5] and in assay [6] was more than 100 µM throughout. The TGI was more than 100 µM in assay [7], 87.3 µM in assay [8] and more than 100 µM in assay [9].

As for `N#Cc1c(N2CCOCC2)nc(=S)[nH]c1-c1ccco1`, the GI50 in [1] is 24.7 µM; in assay [2], 12.2 µM; in [3], 2.15 µM; in assay [4], 3.94 µM; in assay [10] it was 2.38 µM; in [5], 26 µM. In addition, the GI50 in [6] was 18.3 µM; in assay [7], 2.67 µM; in [8], 1.3 µM; in assay [9], 5.06 µM. For the same molecule, the TGI is more than 100 µM in assay [1]; more than 100 µM in assay [2]; 55.6 µM in assay [3]; 63.5 µM in [4]; 33.6 µM in [10]; more than 100 µM in [5]. The TGI in [6] was more than 100 µM; in assay [7], 72.3 µM; in assay [8] it was 5.91 µM; in assay [9], more than 100 µM.

In the case of `CCCN(CCS(C)(=O)=O)Cc1ccc(-c2ccc3ncnc(Nc4ccc(OCc5cccc(F)c5)c(Cl)c4)c3c2)o1`, the GI50 was 9.49 µM in assay [1]; more than 25 µM in [2]; more than 25 µM in assay [3]; more than 25 µM in [4]; more than 25 µM in assay [10]; more than 25 µM in assay [5]. Moreover, the GI50 is more than 25 µM in assay [6], 5.12 µM in [7], 1.82 µM in assay [8] and more than 14.1 µM in [9]. Also, the TGI in [1], in assay [2], in assay [3], in assay [4], in [10] and in [5] was more than 25 µM throughout. The TGI in assay [6] was more than 25 µM; in assay [7], more than 25 µM; in [8] it was 24.7 µM; in assay [9] it was more than 25 µM.

With `O=C(OCc1ccc2ccccc2n1)c1cn(C2CC2)c2cc(N3CCN(Cc4ccc5ccccc5n4)CC3)c(F)cc2c1=O`, the GI50 in assay [1] was more than 53.5 µM; in assay [2], more than 56.3 µM; in [3] it was 32 µM; in [4], 22.1 µM; in [10] it was more than 100 µM; in assay [5], more than 81.6 µM. Besides, the GI50 was 51.5 µM in assay [6], more than 100 µM in assay [7], 12.9 µM in [8] and 20.1 µM in [9]. For the same molecule, the TGI was more than 100 µM in [1]; 99.8 µM in assay [2]; more than 66.6 µM in [3]; 91.6 µM in assay [4]; more than 100 µM in [10]; more than 100 µM in [5]. For the same molecule, the TGI was more than 100 µM in [6], more than 100 µM in assay [7], more than 100 µM in assay [8] and 62.2 µM in [9].

For the molecule `CCCCCCCCCCCCCCCCCC1=NCCN1CCOC1=C(Cl)C(=O)c2ccccc2C1=O`, the GI50 was 0.828 µM in assay [1]; 1.84 µM in [2]; 2.2 µM in assay [3]; 2.39 µM in assay [10]; 3.56 µM in [5]; 1.95 µM in assay [6]. For the same molecule, the values for the GI50 in [7], in assay [8] and in assay [9] were 1.37 µM, 1.86 µM and 2.36 µM, respectively. For the same molecule, the TGI in assay [1] is 4.2 µM; in assay [2] it was 3.39 µM; in [3] it was 8.54 µM; in [10], 5.08 µM; in assay [5] it was 11.5 µM; in assay [6] it was 4.43 µM. Moreover, the TGI in assay [7] stood at 2.77 µM; in assay [8] it was 4.43 µM; in assay [9], 6.75 µM.

Consider `CO[C@H]1CC(O[C@@H]2/C(C)=C/C[C@@H]3C[C@@H](C[C@]4(C=C[C@H](C)[C@@H](C5CCCCC5)O4)O3)OC(=O)[C@@H]3C=C(C)[C@@H](O)[C@H]4OC/C(=C\C=C\[C@@H]2C)[C@]43O)O[C@@H](C)C1O[C@H]1C[C@H](OC)[C@@H](O)[C@H](C)O1` (some centres not stated), for which the GI50 in [2] is 1.67 µM; in assay [3], 1.45 µM; in assay [4], 1.45 µM; in assay [5] it was 2.03 µM; in [6] it was 2.07 µM; in assay [7], 1.4 µM. The GI50 is 1.65 µM in assay [8] and 1.41 µM in assay [9]. For the same molecule, the TGI in assay [2] was found to be 3.13 µM; in assay [3], 3.6 µM; in assay [4], 2.95 µM; in [5], 6.52 µM; in assay [6] it was 5.29 µM; in assay [7], 2.71 µM. Besides, the TGI in [8] amounted to 3.43 µM; in assay [9], 2.77 µM.

Consider `COc1ccc(-c2[nH]c3ccccc3c2-c2ccc(OC)cc2)cc1`, for which the GI50 in assay [1] is 2.89 µM; in assay [2] it was 3.9 µM; in assay [3], 1.47 µM; in assay [10] it was 8.31 µM; in [5] it was 5.06 µM; in [6], 10.3 µM. For the same molecule, the GI50 in assay [7] was 3.29 µM; in assay [8] it was 3.28 µM; in assay [9] it was 3.65 µM. Moreover, the TGI in assay [1] came to 10.4 µM; in [2], 14.8 µM; in assay [3], 6.61 µM; in assay [10] it was 25.6 µM; in [5], 20.6 µM; in [6] it was 35.8 µM. The TGI in [7] was found to be 15.5 µM; in [8], 20.6 µM; in assay [9], 15.2 µM.

As to `O=C(/C=C\c1cccc([N+](=O)[O-])c1)/C=C/c1cccc([N+](=O)[O-])c1`, the GI50 in [2] is 2.49 µM; in assay [3], 13.3 µM; in assay [4], 15.4 µM; in [10], 19.5 µM; in [5] it was 16.4 µM; in assay [6] it was 5.25 µM. The results for the GI50 in [7], in assay [8] and in assay [9] were 1.7 µM, more than 100 µM and 61.3 µM, respectively. The TGI was 7.33 µM in assay [2]; 66.6 µM in assay [3]; more than 100 µM in [4]; 49.4 µM in assay [10]; more than 100 µM in assay [5]; more than 100 µM in assay [6]. Besides, the TGI was 4.9 µM in assay [7], more than 100 µM in assay [8] and more than 100 µM in assay [9].

For `O=C1OC(=O)C(=C\c2ccc3c(c2)OCO3)/C1=C/c1ccc2c(c1)OCO2`, the TGI in [1], in assay [2], in assay [4], in [10], in assay [5] and in assay [6] was more than 100 µM throughout. Besides, the TGI in [7], in [8] and in assay [9] was more than 100 µM in each case.

Regarding `CO/N=C(\COc1ccc2c(c1)[nH]c1ccccc12)c1ccc(F)cc1`, the GI50 was more than 100 µM in [2]; 9.17 µM in [3]; more than 100 µM in assay [4]; 30 µM in assay [5]; 10.4 µM in assay [6]; more than 100 µM in assay [7]. The GI50 in assay [8] and in [9] was more than 100 µM in each case. For the same molecule, the TGI is more than 100 µM in assay [2]; 89.6 µM in assay [3]; more than 100 µM in [4]; more than 100 µM in [5]; more than 100 µM in assay [6]; more than 100 µM in [7]. Also, the TGI in assay [8] and in assay [9] was more than 100 µM each time.

Consider `N#CC1(C(N)=O)C(c2ccc(Cl)cc2)CC(=O)CC1c1ccc(Cl)cc1` (configuration not stated), for which the GI50 in assay [1] is 31.4 µM; in [2], 16.2 µM; in assay [4] it was 16 µM; in assay [10], 16.1 µM; in assay [5], 17.7 µM; in assay [6], 18.4 µM. Also, the GI50 was 16.3 µM in [7], 17.4 µM in assay [8] and 17.4 µM in assay [9]. Further, the TGI in assay [1] is more than 100 µM; in [2], 29.7 µM; in [4], 31.6 µM; in assay [10] it was 31.1 µM; in assay [5], 33.5 µM; in assay [6], 42.2 µM. The TGI worked out at 32 µM in [7], 41.8 µM in assay [8] and 31.1 µM in [9].

As to `O=C(/C=C/c1cc2ccccc2[nH]c1=O)/C=C/c1cc2ccccc2[nH]c1=O`, the GI50 was more than 23.1 µM in [1]; more than 26.3 µM in [3]; 14.9 µM in assay [4]; more than 24.7 µM in [10]; 21.1 µM in assay [5]; 9.84 µM in assay [6]. The results for the GI50 in assay [7], in [8] and in assay [9] were more than 100 µM, 11.6 µM and 23.5 µM, respectively. In addition, the TGI in assay [1] is more than 100 µM; in assay [3], more than 67.5 µM; in [4], 38.1 µM; in assay [10] it was more than 30.6 µM; in [5], more than 100 µM; in assay [6], more than 72.8 µM. Also, the TGI in [7], in assay [8] and in [9] was more than 100 µM each time.

In the case of `O=C1c2cccnc2C(=O)c2c1c(C(=O)NCCCN1CCCCC1)c1ccccn21`, the GI50 in [1] is 1.22 µM; in assay [2] it was 1.15 µM; in assay [3] it was 1.36 µM; in assay [10] it was 2.05 µM; in [5], 1.12 µM; in [6], 0.75 µM. The GI50 in assay [7] was 1.42 µM; in [8], 1.59 µM; in [9], 0.36 µM. In addition, the TGI in assay [1] was more than 100 µM; in [2], 2.44 µM; in assay [3] it was 2.86 µM; in assay [10], 5.17 µM; in assay [5], 2.57 µM; in assay [6], 5.58 µM. In addition, the figures for the TGI in assay [7], in [8] and in assay [9] were 6.71 µM, 4.34 µM and 1.35 µM, respectively.

For `COc1cc2c(cc1C1COc3cc4occc4cc3C1=O)OCO2` (configuration not stated), the TGI in [2], in assay [3], in assay [4], in assay [10], in assay [5] and in [6] was more than 100 µM in each case. The TGI in assay [7], in assay [8] and in [9] was more than 100 µM throughout.

`CN(C)CCCn1c(=O)c2ccccc2c2ccccc21`: the GI50 in [1] was 21.8 µM; in [2] it was 14.4 µM; in [3], 13.9 µM; in assay [4], 12.1 µM; in [10], 16.5 µM; in assay [5] it was 23.3 µM. Besides, the GI50 in assay [6] was 7.03 µM; in assay [8], 25.2 µM; in [9], 12.3 µM. Further, the TGI in assay [1] was more than 100 µM; in assay [2], 29.6 µM; in assay [3], 28.6 µM; in assay [4] it was 38.5 µM; in assay [10] it was 33.5 µM; in assay [5] it was more than 100 µM. The TGI in assay [6] was more than 100 µM; in assay [8], more than 100 µM; in [9], 24.9 µM.

Turning to `O=C1/C(=C/c2ccccc2[N+](=O)[O-])Cc2ccccc21`, the GI50 in assay [1] was 3.4 µM; in assay [2], 1.97 µM; in assay [4], 2.1 µM; in assay [10], 5.39 µM; in assay [5], 10.6 µM; in assay [6], 2.12 µM. Further, the GI50 in assay [7] was 1.21 µM; in [8] it was 2.22 µM; in assay [9], 3.11 µM. For the same molecule, the TGI in [1] was more than 100 µM; in assay [2], 3.96 µM; in [4], 9.03 µM; in [10], 19.7 µM; in assay [5], 41.2 µM; in [6], 5.4 µM. Also, the TGI in assay [7] is 2.68 µM; in assay [8] it was more than 100 µM; in [9] it was 14 µM.

For the origin of these results see PubChem BioAssay (NCI).
